Legend:
[1] = test system: cervical cancer cells (HeLa); assay: MTT method, inhibition of cervical cancer cells (HeLa); format: cell-based; settings: Homo sapiens, absorbance at 595 nm, modified Karber formula, read-out: IC50, inhibition of growth of cervical cancer cells (HeLa)
Method: (§1) The antitumor activity of Ame and Ame-Co complex were studied by MTT method with the following process:
(§2) (1) The HepG2 and HeLa cell suspensions were inoculated into 96-well culture plates, 100 μL was added for each well, (1×10^5/mL), and then cultured in a 5% CO2 incubator at 37° C. for 24 h;
(§3) (2) After culturing for 24 h, the supernatant was discarded, 100 μL of pre-diluted sample was added, 10 replicate wells were set for each concentration, and then incubated in the 5% CO2 incubator for 24 h; meanwhile, control wells (DMSO, cell suspension, MTT), and blank wells (medium, DMSO, MTT) were set;
(§4) (3) After culturing for […], the supernatant was discarded, 100 μL of DMEM medium containing MTT (5 mg/mL) were added, and then continuously cultured for 4 h; […]
(§5) Where, IR is the inhibition rate, OD0 is the absorbance of the control group, OD1 is the absorbance of the sample group, Xm is lg (the maximum dose), I is lg (the maximum dose/adjacent dose), P is the sum of positive reaction rates, Pm is the maximum positive reaction rate, and Pn is the minimum positive reaction rate.

hepatoma cells (HepG2) = assay: MTT method, inhibition of hepatoma cells (HepG2); format: cell-based; settings: Homo sapiens, HepG2, absorbance at 595 nm, modified Karber formula, read-out: IC50, inhibition of growth of hepatoma cells (HepG2)
Method: as §1, §2, §3, §4, §5

[2] = Pyrogallol auto-oxidation method, O2^−. free radical scavenging; settings: Tris-HCl pH 8.20, 25° C., 322 nm, read-out: IC50 to scavenge O2^−. free radical
Method: The free radical scavenging capacity and the total antioxidant capacity of the Ame and the Ame-Co complex were studied by pyrogallol auto-oxidation method, ABTS method and FRAP method with the following steps:
(1) Pyrogallol Auto-Oxidation Method
Determination of auto-oxidation rate V0 of pyrogallol: 2 mL Tris-HCl buffer (pH=8.20) was added to a 10 mL sample tube at 25° C., 100 μL DMSO was added as a control, after adding 0.8 mL distilled water, 0.2 mL pyrogallol solution having a concentration of 2 mmol·L^−1 was added, the mixture was poured into a cuvette after mixing uniformly, the absorbance at 322 nm was measured with pure water as a blank, the A value was recorded every 10 s for a total of 4 min, linear regression was performed with t as the abscissa, and A as the ordinate, straight line slope thereof is V0, and the measurement was performed for three times to obtain an average value. […]

herring sperm DNA (fDNA) = assay: Interaction with fDNA by UV-vis spectroscopy, fluorescence spectroscopy (fDNA-EB system) and viscosity method; format: binding; settings: UV-vis, fluorescence (fDNA-EB) and viscosity methods
Excerpt: UV-vis spectroscopy, fluorescence spectroscopy and viscosity method are used to study the interaction between the Ame/Ame-Co complex and herring sperm DNA (fDNA) to further reveal the mechanism of antitumor activity, the obtained spectra are shown in FIGS. 7-11.

[3] = FRAP method, total antioxidant capacity; settings: Fe^3+-TPTZ, 37° C., 30 min, 593 nm
Method: Drawing of the standard curve of FeSO4.7H2O: different volumes of FeSO4.7H2O solution were added to NaAc—HAc buffer (pH=3.6) to prepare Fe^2+ solution with different concentrations. 0.5 mL TPTZ solution, 0.1 mL DMSO, and 1.9 mL NaAc—HAc buffer containing Fe^2+ were successively added into a 10 mL sample tube, after reacting for 5 min at 37° C., the UV-vis spectrum was measured, and the absorption intensity at 593 nm was recorded, and the standard curve was drawn with absorbance (A) as the vertical coordinate and Fe^2+ concentration as the horizontal coordinate.
Determination of total antioxidant capacity of the sample: 0.5 mL TPTZ solution, 0.5 mL ferric chloride solution, 0.1 mL DMSO solution containing samples of different concentrations, and 1.5 mL NaAc—HAc buffer were successively added into a 10 mL sample tube, after reacting for 30 min at 37° C., the UV-vis spectrum was measured, and the absorption intensity A1 at 593 nm was recorded, the absorbance A1 of the sample was converted to the corresponding Fe^2+ ion concentration according to the standard curve of ferrous sulfate, and the curve was drawn with the sample concentration (csample) as the horizontal coordinate and the corresponding Fe^2+ concentration (cFe2+) as the vertical coordinate. […]

Row | Compound | IC50 [1] [µM] | IC50 (hepatoma cells (HepG2)) [µM] | IC50 [2] [µM] | manner of interaction with fDNA (herring sperm DNA (fDNA)) | total antioxidant capacity compared with Ame at the same concentration [3] | strength of interaction with fDNA compared with Ame (herring sperm DNA (fDNA))
1 | O=c1cc(-c2ccc(O)c(-c3c(O)cc(O)c4c(=O)cc(-c5ccc(O)cc5)oc34)c2)oc2cc(O)cc(O)c12 [Ame, amentoflavone] | 8.04 | 13.6 | 23.3 | in the intercalation manner | – | –
2 | CS(C)=[O+][Co-4]1([O+]=S(C)C)[O+]=C2C=C(c3ccc(O)cc3)Oc3c2c(cc(O)c3-c2cc(-c3cc(=O)c4c(O)cc(O)cc4o3)ccc2O)[OH+]1 [Ame-Co complex, amentoflavone-cobalt (Ame-Co) complex] | – | – | 4.74 | in the intercalation manner | significantly stronger than that of Ame | stronger than that between the Ame and the fDNA
